Results as given in patent US20230085307A1, “PYRIDAZINONE COMPOUND AND HERBICIDE” (NISSAN CHEMICAL CORPORATION, priority 2019, published 2023).

What was measured:
[1] = system: barnyard grass; experiment: Test Example 3: herbicidal effect by foliage application, Wagner pot (Table 18, symbol H); assay type: in vivo, barnyard grass (Echinochloa crus-galli)
Method in brief: (§1)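 Plants were sown in alluvial soil held under 0.1–0.5 cm standing water and grown 14 days in a greenhouse at 25–30 °C. An emulsifiable formulation, water-diluted to the set dose, was then sprayed onto the foliage, and effects were scored three weeks later using previously defined criteria.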

[2] = system: Chinese sprangletop; experiment: Test Example 3: herbicidal effect by foliage application, Wagner pot (Table 18, symbol D); assay type: in vivo, chinese sprangletop (Leptochloa chinensis)
Method in brief: as §1

[3] = system: rice flat sedge; experiment: Test Example 3: herbicidal effect by foliage application, Wagner pot (Table 18, symbol E); assay type: in vivo, rice flat sedge (Cyperus iria)
Method in brief: as §1

[4] = system: southern crabgrass; experiment: Test Example 4: herbicidal effect by soil treatment (Table 19, symbol F); assay type: in vivo, southern crabgrass (Digitaria ciliaris)
Method in brief: (§2)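 Pre-emergence style soil spray: seeds under ~1.5 cm sterilized diluvial soil received a uniform coat of emulsion diluted to the predetermined herbicide amount. Greenhouse 25–30° C; readout at week three on previously defined criteria.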

[5] = system: green foxtail; experiment: Test Example 4: herbicidal effect by soil treatment (Table 19, symbol G); assay type: in vivo, green foxtail (Setaria viridis)
Method in brief: as §2

[6] = system: barnyard grass; experiment: Test Example 4: herbicidal effect by soil treatment (Table 19, symbol H); assay type: in vivo, barnyard grass (Echinochloa crus-galli)
Method in brief: as §2

[7] = system: wild oat; experiment: Test Example 4: herbicidal effect by soil treatment (Table 19, symbol I); assay type: in vivo, wild oat (Avena fatua)
Method in brief: as §2

[8] = system: blackgrass; experiment: Test Example 4: herbicidal effect by soil treatment (Table 19, symbol J); assay type: in vivo, blackgrass (Alopecurus myosuroides)
Method in brief: as §2

[9] = system: Italian ryegrass; experiment: Test Example 4: herbicidal effect by soil treatment (Table 19, symbol K); assay type: in vivo, Italian ryegrass (Lolium multiflorum)
Method in brief: as §2

[10] = system: windgrass; experiment: Test Example 4: herbicidal effect by soil treatment (Table 19, symbol L); assay type: in vivo, windgrass (Apera spica-venti)
Method in brief: as §2

[11] = system: velvetleaf; experiment: Test Example 4: herbicidal effect by soil treatment (Table 19, symbol M); assay type: in vivo, velvetleaf (Abutilon theophrasti)
Method in brief: as §2

[12] = system: redroot pigweed; experiment: Test Example 4: herbicidal effect by soil treatment (Table 19, symbol N); assay type: in vivo, redroot pigweed (Amaranthus retroflexus)
Method in brief: as §2

[13] = system: lambsquarters; experiment: Test Example 4: herbicidal effect by soil treatment (Table 19, symbol O); assay type: in vivo, lambsquarters (Chenopodium album)
Method in brief: as §2

[14] = system: chickweed; experiment: Test Example 4: herbicidal effect by soil treatment (Table 19, symbol P); assay type: in vivo, common chickweed (Stellaria media)
Method in brief: as §2

[15] = system: persian speedwell; experiment: Test Example 4: herbicidal effect by soil treatment (Table 19, symbol R); assay type: in vivo, Persian speedwell (Veronica persica)
Method in brief: as §2

[16] = system: southern crabgrass; experiment: Test Example 5: herbicidal effect by foliage application, plastic box (Table 20, symbol F); assay type: in vivo, southern crabgrass (Digitaria ciliaris); conditions: foliage application
Method in brief: (§3)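 Plants were sown into sterilized diluvial soil under about 1.5 cm cover and kept in a greenhouse at 25° C. to 30° C. Fourteen days on, foliage received an even spray of the diluted emulsion. Herbicidal or crop effect was judged three weeks afterwards.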

[17] = system: green foxtail; experiment: Test Example 5: herbicidal effect by foliage application, plastic box (Table 20, symbol G); assay type: in vivo, green foxtail (Setaria viridis); conditions: foliage application
Method in brief: as §3

[18] = system: barnyard grass; experiment: Test Example 5: herbicidal effect by foliage application, plastic box (Table 20, symbol H); assay type: in vivo, barnyard grass (Echinochloa crus-galli); conditions: foliage application
Method in brief: as §3

[19] = system: wild oat; experiment: Test Example 5: herbicidal effect by foliage application, plastic box (Table 20, symbol I); assay type: in vivo, wild oat (Avena fatua); conditions: foliage application
Method in brief: as §3

[20] = system: blackgrass; experiment: Test Example 5: herbicidal effect by foliage application, plastic box (Table 20, symbol J); assay type: in vivo, blackgrass (Alopecurus myosuroides); conditions: foliage application
Method in brief: as §3

[21] = system: Italian ryegrass; experiment: Test Example 5: herbicidal effect by foliage application, plastic box (Table 20, symbol K); assay type: in vivo, Italian ryegrass (Lolium multiflorum); conditions: foliage application
Method in brief: as §3

[22] = system: windgrass; experiment: Test Example 5: herbicidal effect by foliage application, plastic box (Table 20, symbol L); assay type: in vivo, windgrass (Apera spica-venti); conditions: foliage application
Method in brief: as §3

[23] = system: velvetleaf; experiment: Test Example 5: herbicidal effect by foliage application, plastic box (Table 20, symbol M); assay type: in vivo, velvetleaf (Abutilon theophrasti); conditions: foliage application
Method in brief: as §3

[24] = system: redroot pigweed; experiment: Test Example 5: herbicidal effect by foliage application, plastic box (Table 20, symbol N); assay type: in vivo, redroot pigweed (Amaranthus retroflexus); conditions: foliage application
Method in brief: as §3

[25] = system: lambsquarters; experiment: Test Example 5: herbicidal effect by foliage application, plastic box (Table 20, symbol O); assay type: in vivo, lambsquarters (Chenopodium album); conditions: foliage application
Method in brief: as §3

[26] = system: chickweed; experiment: Test Example 5: herbicidal effect by foliage application, plastic box (Table 20, symbol P); assay type: in vivo, common chickweed (Stellaria media); conditions: foliage application
Method in brief: as §3

[27] = system: persian speedwell; experiment: Test Example 5: herbicidal effect by foliage application, plastic box (Table 20, symbol R); assay type: in vivo, Persian speedwell (Veronica persica); conditions: foliage application
Method in brief: as §3

[28] = amount of applied herbicide 80 g/ha
[29] = 80 g/ha, three weeks after application
[30] = amount of applied herbicide 320 g/ha
[31] = 320 g/ha, evaluated three weeks after application

CCc1nn(C)c(=O)c(-c2c(-c3ccc(C(F)(F)F)cc3)sc3ccc(F)cc23)c1O [2-410]
herbicidal effect on H: barnyard grass [1, 28]: 4 (Herbicidal rate of 70% or more and less than 90%)
herbicidal effect on D: Chinese sprangletop [2, 28]: 0 (Herbicidal rate of 5% or less (almost no effect))
herbicidal effect on E: rice flat sedge [3, 28]: 1 (Herbicidal rate of 5% or more and less than 20%)
herbicidal effect, F: southern crabgrass [4, 28]: 0 (Herbicidal rate of 5% or less (almost no effect))
herbicidal effect, G: green foxtail [5, 28]: 1 (Herbicidal rate of 5% or more and less than 20%)
herbicidal effect, H: barnyard grass [6, 28]: 0 (Herbicidal rate of 5% or less (almost no effect))
herbicidal effect, I: wild oat [7, 28]: 0 (Herbicidal rate of 5% or less (almost no effect))
herbicidal effect, J: blackgrass [8, 28]: 0 (Herbicidal rate of 5% or less (almost no effect))
herbicidal effect, K: Italian ryegrass [9, 28]: 0 (Herbicidal rate of 5% or less (almost no effect))
herbicidal effect, L: windgrass [10, 28]: 0 (Herbicidal rate of 5% or less (almost no effect))
herbicidal effect, M: velvetleaf [11, 28]: 0 (Herbicidal rate of 5% or less (almost no effect))
herbicidal effect, N: redroot pigweed [12, 28]: 3 (Herbicidal rate of 40% or more and less than 70%)
herbicidal effect, O: lambsquarters [13, 28]: 1 (Herbicidal rate of 5% or more and less than 20%)
herbicidal effect, P: chickweed [14, 28]: 0 (Herbicidal rate of 5% or less (almost no effect))
herbicidal effect, R: persian speedwell [15, 28]: 0 (Herbicidal rate of 5% or less (almost no effect))
F: southern crabgrass, herbicidal effect grade [16, 29]: 0 (Herbicidal rate of 5% or less (almost no effect))
G: green foxtail, herbicidal effect grade [17, 29]: 2 (Herbicidal rate of 20% or more and less than 40%)
H: barnyard grass, herbicidal effect grade [18, 29]: 3 (Herbicidal rate of 40% or more and less than 70%)
I: wild oat, herbicidal effect grade [19, 29]: 0 (Herbicidal rate of 5% or less (almost no effect))
J: blackgrass, herbicidal effect grade [20, 29]: 0 (Herbicidal rate of 5% or less (almost no effect))
K: Italian ryegrass, herbicidal effect grade [21, 29]: 0 (Herbicidal rate of 5% or less (almost no effect))
L: windgrass, herbicidal effect grade [22, 29]: 0 (Herbicidal rate of 5% or less (almost no effect))
M: velvetleaf, herbicidal effect grade [23, 29]: 1 (Herbicidal rate of 5% or more and less than 20%)
N: redroot pigweed, herbicidal effect grade [24, 29]: 3 (Herbicidal rate of 40% or more and less than 70%)
O: lambsquarters, herbicidal effect grade [25, 29]: 3 (Herbicidal rate of 40% or more and less than 70%)
P: chickweed, herbicidal effect grade [26, 29]: 4 (Herbicidal rate of 70% or more and less than 90%)
R: persian speedwell, herbicidal effect grade [27, 29]: 4 (Herbicidal rate of 70% or more and less than 90%)

CCCC(=O)Oc1c(C)nn(C)c(=O)c1-c1c(-c2cccc(OCC)c2)sc2ccc(F)cc12 [2-212]
herbicidal effect on H: barnyard grass [1, 30]: 5 (Herbicidal rate of 90% or more (almost completely withered))
herbicidal effect on D: Chinese sprangletop [2, 30]: 3 (Herbicidal rate of 40% or more and less than 70%)
herbicidal effect on E: rice flat sedge [3, 30]: 4 (Herbicidal rate of 70% or more and less than 90%)
F: southern crabgrass, herbicidal effect rating [4, 30]: 3 (Herbicidal rate of 40% or more and less than 70%)
G: green foxtail, herbicidal effect rating [5, 30]: 4 (Herbicidal rate of 70% or more and less than 90%)
H: barnyard grass, herbicidal effect rating [6, 30]: 5 (Herbicidal rate of 90% or more (almost completely withered))
I: wild oat, herbicidal effect rating [7, 30]: 0 (Herbicidal rate of 5% or less (almost no effect))
J: blackgrass, herbicidal effect rating [8, 30]: 0 (Herbicidal rate of 5% or less (almost no effect))
K: Italian ryegrass, herbicidal effect rating [9, 30]: 3 (Herbicidal rate of 40% or more and less than 70%)
L: windgrass, herbicidal effect rating [10, 30]: 0 (Herbicidal rate of 5% or less (almost no effect))
M: velvetleaf, herbicidal effect rating [11, 30]: 0 (Herbicidal rate of 5% or less (almost no effect))
N: redroot pigweed, herbicidal effect rating [12, 30]: 3 (Herbicidal rate of 40% or more and less than 70%)
O: lambsquarters, herbicidal effect rating [13, 30]: 1 (Herbicidal rate of 5% or more and less than 20%)
P: chickweed, herbicidal effect rating [14, 30]: 1 (Herbicidal rate of 5% or more and less than 20%)
R: persian speedwell, herbicidal effect rating [15, 30]: 4 (Herbicidal rate of 70% or more and less than 90%)
herbicidal effect on F: southern crabgrass (criteria 0-5) [16, 31]: 5 (Herbicidal rate of 90% or more (almost completely withered))
herbicidal effect on G: green foxtail (criteria 0-5) [17, 31]: 5 (Herbicidal rate of 90% or more (almost completely withered))
herbicidal effect on H: barnyard grass (criteria 0-5) [18, 31]: 4 (Herbicidal rate of 70% or more and less than 90%)
herbicidal effect on I: wild oat (criteria 0-5) [19, 31]: 0 (Herbicidal rate of 5% or less (almost no effect))
herbicidal effect on J: blackgrass (criteria 0-5) [20, 31]: 0 (Herbicidal rate of 5% or less (almost no effect))
herbicidal effect on K: Italian ryegrass (criteria 0-5) [21, 31]: 4 (Herbicidal rate of 70% or more and less than 90%)
herbicidal effect on L: windgrass (criteria 0-5) [22, 31]: 3 (Herbicidal rate of 40% or more and less than 70%)
herbicidal effect on M: velvetleaf (criteria 0-5) [23, 31]: 3 (Herbicidal rate of 40% or more and less than 70%)
herbicidal effect on N: redroot pigweed (criteria 0-5) [24, 31]: 5 (Herbicidal rate of 90% or more (almost completely withered))
herbicidal effect on O: lambsquarters (criteria 0-5) [25, 31]: 3 (Herbicidal rate of 40% or more and less than 70%)
herbicidal effect on P: chickweed (criteria 0-5) [26, 31]: 5 (Herbicidal rate of 90% or more (almost completely withered))
herbicidal effect on R: persian speedwell (criteria 0-5) [27, 31]: 5 (Herbicidal rate of 90% or more (almost completely withered))
